Experimental data taken from article PMC12670160, “A drug-repurposing screen of FDA- and EMA-approved drugs identifies two NF-κB inhibitors active against eumycetoma” (Journal of Antimicrobial Chemotherapy, 2025).
Values after ≈ are worked out from the molar mass of the structure shown. “Also recorded” adds a separate entry of the source. Structures can show the parent of a compound that is named as a salt.

Tests used:
[1] = tested on: M. mycetomatis; assay: In vitro susceptibility, averages over M. mycetomatis isolates (average metabolic activity at 2 µM, mean MIC); type: cell-based; settings: Madurella mycetomatis, 96 h, 4 days at 37°C, CellTiter-Glo, average of 3 isolates, 20% or below = inhibition
[2] = tested on: M. mycetomatis strain mm55; assay: IC50 and MIC determination, CellTiter-Glo, strain mm55; type: cell-based, Madurella mycetomatis; settings: Madurella mycetomatis; for IC50: concentration inhibiting 50% of fungal hyphae growth; for MIC: concentration with complete growth inhibition
[3] = tested on: M. mycetomatis strain P1; assay: IC50 and MIC determination, CellTiter-Glo, strain P1; type: cell-based, Madurella mycetomatis; settings: Madurella mycetomatis, P1
[4] = tested on: M. mycetomatis strain I1; assay: IC50 and MIC determination, CellTiter-Glo, strain I1; type: cell-based, Madurella mycetomatis; settings: Madurella mycetomatis, I1
[5] = tested on: M. mycetomatis; design: method as in PMID 35398930, PMID 15793113, PMID 36005544, PMID 34181477, PMID 22964246; settings: against M. mycetomatis; cited from earlier work
[6] = tested on: M. mycetomatis-infected G. mellonella larvae; settings: M. mycetomatis-infected G. mellonella larvae; cited from earlier work
[7] = tested on: eumycetoma; settings: cited from earlier work
[8] = tested on: M. mycetomatis mouse model; design: method as in PMID 26150103; settings: cited from earlier work
[9] = tested on: healthy uninfected G. mellonella larvae; settings: 20 µL of 20 µM injected
Method: (§1) For in vivo experiments, sixth-week instar G. mellonella larvae were purchased from Blue-Lagoon, Maassluis, The Netherlands. The larvae were raised and kept in the dark at room temperature. Larvae without any discoloration and weighing around 500 mg were selected for experiments.
To determine the toxicity, 15 healthy uninfected larvae were injected with 20 µL of 20 µM compound as previously described.[16] […] As a control, a separate group of larvae were injected with 20 µL of PBS. Larvae were housed in Petri dishes with Whatman paper at 37°C in the dark. Survival was monitored for 10 days.

[10] = tested on: M. mycetomatis MM55-infected G. mellonella larvae; assay: Therapeutic efficacy in M. mycetomatis-infected G. mellonella larvae (survival, log-rank); type: in vivo, Galleria mellonella; settings: 20 µL of 20 µM at 4, 28 and 52 h post infection; 10 days
Method: as §1
The wet weight was determined and 10 mL of PBS per gram of mycelia was added. The suspension was then sonicated for 2 min to achieve a particle size of 10 µm. The fungal suspension (4 mg/40 µL) was injected into the last left pro-leg of a healthy G. mellonella larva with an insulin 29G U-100 needle to reach a final inoculum of 4 mg/larva. Larvae were placed in Petri dishes containing Whatman paper in a 37°C incubator.
A control group was also included in which M. mycetomatis-infected larvae were treated with PBS or with 1 mg/kg amphotericin B (Fungizone, Bristol Myers Squibb, Utrecht, The Netherlands). […] The treatment was repeated at 28 h post infection and 52 h post infection via different prolegs. The infection was monitored for 10 days.
To compare the survival rates between PBS treatment control and the different experimental groups a log-rank test was performed. All data were processed and performed in GraphPad Prism 10.

[11] = tested on: vancomycin-resistant Staphylococcus aureus strains; settings: cited from earlier work
[12] = tested on: Rhodnius prolixus; design: method as in PMID 30233391; settings: insect vector Rhodnius prolixus; cited from earlier work
[13] = tested on: M. mycetomatis; design: method as in PMID 34209118; settings: in vitro; cited from earlier work
[14] = tested on: primary human neutrophils exposed to C. albicans; design: method as in PMID 19609651; settings: cited from earlier work

| SMILES | activity at 2 µM [1] [%] | IC50 [2] [µM] | MIC [2] [µM] | IC50 [3] [µM] | MIC [3] [µM] | IC50 [4] [µM] | MIC [4] [µM] | further results |
| --- | --- | --- | --- | --- | --- | --- | --- | --- |
| CCC(C)n1ncn(-c2ccc(N3CCN(c4ccc(OCC5COC(Cn6cncn6)(c6ccc(Cl)cc6Cl)O5)cc4)CC3)cc2)c1=O (stereo not shown) [Itraconazole hydrochloride] | 6.1 | 1.58 | 2 | 0.84 | 2 | 0.78 | 1 | MIC50 [5]: 0.06 µg/mL; larval survival [6]: No prolonged larval survival; lesion size or β-glucan levels ([7]; 400 mg/day, first 6 months of treatment): no reduction; cure rate ([7]; itraconazole combined with surgery, clinical trial setting): 80%; activity in M. mycetomatis mouse model [8]: lack of activity |
| O=C(Nc1cc(C(F)(F)F)cc(C(F)(F)F)c1)c1cc(Cl)ccc1O [IKK2 inhibitor V (IMD-0354), IMD-0354] | 2.3 | 1.76 | 2 (≈ 0.767 µg/mL) | 0.17 | 0.25 (≈ 0.0959 µg/mL) | 1.68 | 2 (≈ 0.767 µg/mL) | Toxicity in G. mellonella larvae at 20 µM ([9]; 10 day observation, toxic if more than 20% of larvae died): not toxic; larval survival ([9]; 10 days, uninfected larvae): above 80%; Survival of M. mycetomatis-infected larvae versus PBS [10]: prolonged the survival; also recorded: prolonged larval survival; MIC ([11]; Gram-positive vancomycin-resistant Staphylococcus aureus strains): 0.06 µg/mL (≈ 0.156 µM); biofilm formation ([11]; vancomycin-resistant staphylococci): able to inhibit biofilm formation; expression of antimicrobial peptides [12]: decreased; mortality after Trypanosoma cruzi infection [12]: reduced mortality |
| O=C(Nc1ccc([N+](=O)[O-])cc1Cl)c1cc(Cl)ccc1O [niclosamide] | – | – | – | – | – | – | – | activity against M. mycetomatis [13]: active |
| Cc1ccc(S(=O)(=O)/C=C/C#N)cc1 [bay117082] | – | – | – | – | – | – | – | chemotaxis, phagocytosis and killing activity of neutrophils [14]: able to reduce |
